Reference: patent US11357834B2, “Recombinant α-galactosidase A for treatment of Fabry disease” (Amicus Therapeutics, Inc., priority 2017, dated 2022)

What was measured:
GL-3 and plasma lyso-Gb3 [1] = experiment: Repeat administration efficacy, two bi-weekly IV administrations (Example 9); assay type: in vivo, Gla KO mice; conditions: enzyme alone, 1 to 10 mg/kg
Experimental: The efficacy of rhα-Gal A 01-003 with and without migalastat and Fabrazyme (agalsidase beta) were compared. Enzyme was administered via a bolus infusion into Gla KO mice with or without co-formulation with 3 mg/kg migalastat. ˜16 week old male Gla KO mice (n=8; 72 in total) were given two bi-weekly IV administrations.

GL-3 and plasma lyso-Gb3 [2] = experiment: Single bolus IV administration efficacy, necropsy 7 days after dose (Example 10); assay type: in vivo, Gla KO mice
Experimental: The efficacy of rhα-Gal A 01-003 with and without migalastat and Fabrazyme (agalsidase beta) were compared. Enzyme was administered via a single bolus infusion into Gla KO mice with or without co-formulation with migalastat. ˜18 week old male Gla KO mice (7 per group) were given a single bolus IV administration and necropsies were performed 7 days after dose. The treatment groups are shown in Table 15 and the results are shown in FIGS. 21A-21D and Tables 16-19.

GL-3 = GL-3 one week after single IV administration (Example 7); assay type: in vivo, Gla KO mice; conditions: 1 mg/kg enzyme IV, one week post-administration
Experimental: Gla KO mice were administered 1 mg/kg of enzyme IV and GL-3 measured one week post-administration.

GL-3 and plasma lyso-Gb3 [3] = experiment: Substrate reduction seven days after single administration (Example 6); assay type: in vivo, Gla KO mice; conditions: 3 mg/kg enzyme
Experimental: The effect on substrate reduction when combining these enzymes in a co-formulation with migalastat was also assessed. […]
In addition to assessment of enzyme activity in tissues, the degree of substrate reduction seven days post-administration was determined.

[4] = Predicted human migalastat exposure after single IV dose and exposure margins
Excerpt: (§1) Selection of Doses in the Study: The current single dose levels were selected on the basis of predicted human PK following IV dosing, non-clinical safety margins, and target therapeutic migalastat exposures for efficacy.

[5] = General toxicology NOAEL, rat; design: AUC: dose or concentration left out as unconfirmed; conditions: in vivo
in vivo = conditions: monkey, 500 mg/kg/day
Excerpt: as §1

[6] = Phase 1 IV and oral migalastat HCl pharmacokinetics in healthy volunteers; assay type: in vivo, human
Experimental: Healthy volunteers received migalastat HCl via the IV route of administration to evaluate safety, tolerability, and pharmacokinetics. Another study was performed to determine the absolute bioavailability of migalastat after an oral capsule dose as compared to an IV administered dose of migalastat HCl in healthy volunteers.
Type of Study: This Phase 1 study was a single-center study consisting of 2 designs. Cohorts 1, 2, and 3 were performed according to a randomized, double-blind, placebo-controlled, single ascending dose (SAD) IV study design to evaluate the safety, tolerability, and PK of IV administered migalastat HCl or IV administered placebo in healthy subjects. Cohort 4 was an open-label, randomized two-way crossover arm designed to assess the absolute bioavailability of orally administered migalastat HCl relative to IV administered migalastat HCl in healthy subjects.
Cohorts 1, 2, 3: Subjects in Cohorts 1, 2, and 3 received IV administered single ascending doses of migalastat HCl. Seven subjects were enrolled into each cohort (5 subjects randomized to migalastat HCl and 2 subjects randomized to placebo). Dosing of Cohorts 1, 2, and 3 was staggered to allow for safety and tolerability review before proceeding with the next group. Therefore, Cohorts 1, 2, and 3 were each divided into 2 sub-groups: Group A (2 subjects randomized to migalastat HCl and 1 subject randomized to placebo) and Group B (3 subjects randomized to migalastat HCl and 1 subject randomized to placebo). Subjects in Group B were dosed the day following completion of Group A dosing. Except for Cohort 3B, which was dosed 31 days after Cohort 3A because an interim PK review was performed on emerged data from Cohort 3A.
Cohort 4 was randomized such that 5 subjects received the oral formulation and 5 subjects received the IV formulation during Period 1, followed by the alternate formulation during Period 2. • *During Period 1, all Day −1 through Day 3 assessments were performed. ** The washout period was 7 days. *** During Period 2, subjects repeated all Day −1 through Day 3 assessments.
Subjects enrolled in Cohorts 1, 2, and 3 were randomized to receive one of the following doses of migalastat HCl (n=5) or placebo (n=2):

[7] = human, in vivo, po, 1250 mg
[8] = cited from earlier work

For “Fabrazyme: homodimeric recombinant human α-Gal A marketed by Genzyme under the name Fabrazyme”, the “GL-3 in heart and kidney, dose-response” value (GL-3 and plasma lyso-Gb3 [1]) was “good dose-response”, the “GL-3 in skin and plasma lyso-GB3, dose-response” value (GL-3 and plasma lyso-Gb3 [1]) was “good dose-response” and the “GL-3 levels Heart” value (GL-3 and plasma lyso-Gb3 [2]; 1 mg/kg) was 183.23 μg/g tissue. For the same compound, the “GL-3 levels Kidney” value (GL-3 and plasma lyso-Gb3 [2]; 1 mg/kg) was 443 μg/g tissue, the “GL-3 levels Skin” value (GL-3 and plasma lyso-Gb3 [2]; 1 mg/kg) was 1465 μg/g tissue and the “Plasma lyso-Gb3 levels” value (GL-3 and plasma lyso-Gb3 [2]; 1 mg/kg) was 122 ng/mL. For the same compound, the “GL-3 levels Heart” value (GL-3 and plasma lyso-Gb3 [2]; 10 mg/kg) was 53.20 μg/g tissue, the “GL-3 levels Kidney” value (GL-3 and plasma lyso-Gb3 [2]; 10 mg/kg) was 281 μg/g tissue and the “GL-3 levels Skin” value (GL-3 and plasma lyso-Gb3 [2]; 10 mg/kg) was 207 μg/g tissue. The “Plasma lyso-Gb3 levels” value (GL-3 and plasma lyso-Gb3 [2]; 10 mg/kg) was 29.5 ng/mL, the “GL-3 levels Heart” value (GL-3 and plasma lyso-Gb3 [2]; 25 mg/kg) was 21.10 μg/g tissue and the “GL-3 levels Kidney” value (GL-3 and plasma lyso-Gb3 [2]; 25 mg/kg) was 203 μg/g tissue. For the same compound, the “GL-3 levels Skin” value (GL-3 and plasma lyso-Gb3 [2]; 25 mg/kg) was 102 μg/g tissue and the “Plasma lyso-Gb3 levels” value (GL-3 and plasma lyso-Gb3 [2]; 25 mg/kg) was 18.1 ng/mL.

With “rhα-Gal A 01-003: recombinant human α-galactosidase A produced by CHO cell clone 01-003” the “α-Gal A substrate (GL-3) in heart and kidney” value (GL-3) was “able to reduce α-Gal A substrate in heart and kidney”, the “GL-3 in heart and kidney, dose-response” value (GL-3 and plasma lyso-Gb3 [1]) was “good dose-response” and the “GL-3 in skin and plasma lyso-GB3, dose-response” value (GL-3 and plasma lyso-Gb3 [1]) was “good dose-response”. For the same compound, the “GL-3 levels Heart” value (GL-3 and plasma lyso-Gb3 [2]; 10 mg/kg) was 30.30 μg/g tissue, the “GL-3 levels Kidney” value (GL-3 and plasma lyso-Gb3 [2]; 10 mg/kg) was 277 μg/g tissue and the “GL-3 levels Skin” value (GL-3 and plasma lyso-Gb3 [2]; 10 mg/kg) was 149 μg/g tissue. The “Heart GL-3 % reduction compared to Fabrazyme (10 mg/kg)” value (GL-3 and plasma lyso-Gb3 [2]; 10 mg/kg) was 43.05%, the “Kidney GL-3 % reduction compared to Fabrazyme (10 mg/kg)” value (GL-3 and plasma lyso-Gb3 [2]; 10 mg/kg) was 1.42% and the “Plasma lyso-Gb3 % reduction compared to Fabrazyme (10 mg/kg)” value (GL-3 and plasma lyso-Gb3 [2]; 10 mg/kg) was 2.71%. The “Plasma lyso-Gb3 levels” value (GL-3 and plasma lyso-Gb3 [2]; 10 mg/kg) was 28.7 ng/mL, the “Skin GL-3 % reduction compared to Fabrazyme (10 mg/kg)” value (GL-3 and plasma lyso-Gb3 [2]; 10 mg/kg) was 28.02% and the “overall substrate reduction (GL-3 and lyso-Gb3)” value (GL-3 and plasma lyso-Gb3 [2]; rhα-Gal A 10 mg/kg) was “greater substrate reduction than an equivalent dose of Fabrazyme”.

With “rhα-Gal A 04-023: recombinant human α-galactosidase A produced by CHO cell clone 04-023” the “plasma lyso-Gb3 compared to Fabrazyme alone (1 mg/kg)” value (GL-3 and plasma lyso-Gb3 [3]; seven days) was “significantly lower levels of plasma lyso-Gb3”, the “reduction of GL-3 in heart tissue compared to 1 mg/kg Fabrazyme” value (GL-3 and plasma lyso-Gb3 [3]; seven days (FIG. 15A)) was “significantly enhanced reduction of GL-3” and the “reduction in GL-3 in kidney” value (GL-3 and plasma lyso-Gb3 [3]; seven days (FIG. 15B)) was “enhanced substrate reduction”. For the same compound, the “GL-3 in skin compared to Fabrazyme alone (1 mg/kg)” value (GL-3 and plasma lyso-Gb3 [3]; seven days (FIG. 15C)) was “significantly lower level of GL-3 in skin”.

With Cl.OC[C@H]1NC[C@H](O)[C@@H](O)[C@H]1O [Migalastat HCl, migalastat HCl] the “Fold Cover to AUC from human oral 1250 mg, Max” value ([4]; 0.3 mg/kg IV) was 62, the “Fold Cover to AUC from human oral 1250 mg, Median” value ([4]; 0.3 mg/kg IV) was 39 and the “Fold Cover to AUC from human oral 1250 mg, Min” value ([4]; 0.3 mg/kg IV) was 15.5. The “Fold Cover to Cmax from human oral 1250 mg, Max” value ([4]; 0.3 mg/kg IV) was 61, the “Fold Cover to Cmax from human oral 1250 mg, Median” value ([4]; 0.3 mg/kg IV) was 36 and the “Fold Cover to Cmax from human oral 1250 mg, Min” value ([4]; 0.3 mg/kg IV) was 2.6. For the same compound, the “Fold Cover to NOAEL AUC, Monkey” value ([4]; 0.3 mg/kg IV) was 165, the “Fold Cover to NOAEL AUC, Rat” value ([4]; 0.3 mg/kg IV) was 134 and the “Fold Cover to NOAEL Cmax, Monkey” value ([4]; 0.3 mg/kg IV) was 68. For the same compound, the “Fold Cover to NOAEL Cmax, Rat” value ([4]; 0.3 mg/kg IV) was 65, the “Fold Cover to AUC from human oral 1250 mg, Max” value ([4]; 10.0 mg/kg IV) was 1.89 and the “Fold Cover to AUC from human oral 1250 mg, Median” value ([4]; 10.0 mg/kg IV) was 1.19. For the same compound, the “Fold Cover to AUC from human oral 1250 mg, Min” value ([4]; 10.0 mg/kg IV) was 0.47, the “Fold Cover to Cmax from human oral 1250 mg, Max” value ([4]; 10.0 mg/kg IV) was 1.81 and the “Fold Cover to Cmax from human oral 1250 mg, Median” value ([4]; 10.0 mg/kg IV) was 1.07. For the same compound, the “Fold Cover to Cmax from human oral 1250 mg, Min” value ([4]; 10.0 mg/kg IV) was 0.08, the “Fold Cover to NOAEL AUC, Monkey” value ([4]; 10.0 mg/kg IV) was 4.98 and the “Fold Cover to NOAEL AUC, Rat” value ([4]; 10.0 mg/kg IV) was 4.05. The “Fold Cover to NOAEL Cmax, Monkey” value ([4]; 10.0 mg/kg IV) was 2.02, the “Fold Cover to NOAEL Cmax, Rat” value ([4]; 10.0 mg/kg IV) was 1.93 and the AUC [5] was 249 µg·h/mL. The “Cmax at Rat NOAEL” value ([5]; 1500 μg/kg/day) was 23400 ng/mL, the AUC (in vivo) was 306 µg·h/mL and the “maximum arithmetic mean plasma concentration, IV dosing relative to oral dosing” value ([6]; 150 mg IV vs 150 mg oral) was “approximately 2 fold”. For the same compound, the “time of maximum arithmetic mean plasma concentration after start of infusion” value ([6]; IV 150 mg, 2-hour infusion) was 2 h, the “dose dependence of mean plasma concentration-time profiles” value ([6]; increasing IV doses 0.3 to 10 mg/kg) was “clear dose-dependent increase in plasma concentrations” and the “time of maximum arithmetic mean plasma concentration after start of infusion” value ([6]; single 2-hour IV infusion, 0.3 to 10 mg/kg) was 2 h. The “Maximum observed individual AUC” value [7] was 115.9 µg·h/mL, the “Maximum observed individual Cmax” value [7] was 21900 ng/mL and the “Median observed individual AUC” value [7] was 73.2 µg·h/mL. The “Median observed individual Cmax” value [7] was 13000 ng/mL, the “Minimum observed individual AUC” value [7] was 28.9 µg·h/mL and the “Minimum observed individual Cmax” value [7] was 4780 ng/mL. The “maximum exposure (AUC)” value [7] was 116 µg·h/mL, the exposure linearity ([8]; oral administrations, to 1250 mg) was “linear exposures” and the “tissue uptake of active α-Gal A into skin” value ([8]; phase 2a, 23 Fabry patients, single oral 150 mg co-administered with 0.2, 0.5, and 1.0 mg/kg agalsidase) was “improved tissue uptake of active α-Gal A into skin”.
